Data on one molecule can be found in US6020342A, “Fused imidazo[1,2-A]pyridines” (Shinnippon Pharmaceutical, Inc., priority 1995, dated 2000).

Series [1] relates to ethanol-induced gastric lesion. Description: Inhibition of Ethanol-induced Gastric Lesion (Protection of gastric mucosa). It is filed as in vivo, male Wister rats. The settings on record: Rattus norvegicus, po, 1 h; 30 mg/kg orally, rats, ethanol 0.5 ml/100 g. The method, then:
Inhibition of Ethanol-induced Gastric Lesion (Protection of gastric mucosa)
Male Wister rats (6-7weeks, 5 rats per group) fasted for 24 hours were used (water ad libitum). Test compound (30 mg/kg) suspended in 0.5% aqueous CMC-Na solution was orally administered. In the control group, only 0.5% aqueous CMC-Na solution was administered. Thirty minutes after administration, 0.5 ml/100 g body weight of ethanol was orally administered to cause gastric lesion. After one hour, the rat was killed by excessive amount of ether, and the stomach was removed and fixed with 2% formalin. After fixation, the stomach was dissected along the large curvature. The size of each of mucosal lesions was measured under dissecting microscope, and the total size of the lesions per rat was determined and used as ulcer index (mm). Inhibition of gastric lesion was determined by comparing the ulcer index in the control group and test group.

A further series has as its target T1, H^+ /K^+ -ATPase (Sus scrofa, UniProt P19156).
T1 construct: a microsome fraction prepared from porcine gastric mucosa was used as a standard enzyme; from tissue; host or cells: porcine gastric mucosa, microsome fraction
Nature of the series: Inhibitory Action on H^+ /K^+ -ATPase Activity. It is filed as biochemical. The settings on record: microsome fraction from porcine gastric mucosa, pH7.4, 37° C., 30 min preincubation, 15 min reaction.

The subject of series [2] is gastric acid secretion. Nature of the series: Inhibition of Gastric Acid Secretion Observed Under Acute Fistula Method. The note with it: Rattus norvegicus; 30 mg/kg intraduodenally, rats, histamine 10 mg/kg s.c., cumulative 2 h. It is filed as in vivo, male Wistar rats. The protocol: Inhibition of Gastric Acid Secretion Observed Under Acute Fistula Method
Male Wistar rats (6-8 weeks) fasted for 24 hours (water ad libitum) were used. The rats were anesthetized by intraperitoneal administration of 1.25 g/kg of urethane. The abdomen was incised, and acute gastric fistula was connected to the stomach. Two ml of saline was injected into the stomach, and recovered every 20 minutes. The gastric acid secretion was determined by titrating of gastric juice by 150 mM sodium hydroxide up to pH7.0 using an autotitrator. Test compounds (30 mg/kg) suspended in a 0.5% aqueous sodium carboxymethylcellulose (CMC-Na) solution were administered intraduodenally. After 1 hour, gastric acid secretion was stimulated by subcutaneous administration of histamine dihydrochloride dissolved in saline (10 mg/kg). Inhibition (%) of gastric acid secretion was determined by calculating cumulative amount of the acid secretion during two hours after histamine stimulation and then comparing the cumulative amount with that in the control group. In the control group, only 0.5% aqueous CMC-Na solution was administered intraduodenally.

On the set-up of series [3]: species or system male ICR mice. The settings on record: mouse, in vivo, po, 10080 min. The protocol:
Male ICR mice (6 weeks, 3 mice per group) fasted for 16 hours were used ad libitum). A test compound suspended in 5% aqueous gum arabic solution was orally administered. After administration, mortality of the animals observed during 7 days and approximate lethal dose was determined.

Series [4] concerns gastric acid secretion. Description: Inhibition of Gastric Acid Secretion Observed Under Stomach Perfusion Method. The series is classed as in vivo, male Sprague Dawrey rats. The settings on record: Rattus norvegicus, ip, 1 h; rats, histamine i.v. 8 mg/kg/hr, inhibition one hour after administration (1-10 mg/kg, "intrapenetorially"); read-out: ID50 (dose showing 50% inhibition of acid secretion). The method, then: Inhibition of Gastric Acid Secretion Observed Under Stomach Perfusion Method
Male Sprague Dawrey rats (6-7weeks) fasted for 24 hours were used (water ad libitum). The rats were anesthetized by intraperitoneal administration of 1.25 g/kg of urethane. The abdomen was incised, and gastral cavity was perfused with saline during experiment. The perfusate was titrated by 10 mM sodium hydroxide up to pH5.5 using an autotitrator in accordance with Stat-method. Gastric acid secretion was stimulated by intravenous administration of histamine dihydrochloride (8 mg/kg/hr). Two hours after histamine stimulation, a test compound 1-10 mg/kg) was administered intrapenetorially. The test compound was mixed with small amount of polysorbate-80, and the mixture was suspended in saline. The test compound was evaluated using ID50 (dose showing 50% inhibition of acid secretion) which was calculated based on inhibition of the acid secretion observed one hour after administration of the compound.

The term inhibition in vivo denotes the relative decrease from the control value, in per cent. Broadly, the IC50 is the concentration that inhibits the measured activity by half. Low readings indicate greater potency, high ones weaker potency.

T1 sequence (P19156 2-1034 limits assumed): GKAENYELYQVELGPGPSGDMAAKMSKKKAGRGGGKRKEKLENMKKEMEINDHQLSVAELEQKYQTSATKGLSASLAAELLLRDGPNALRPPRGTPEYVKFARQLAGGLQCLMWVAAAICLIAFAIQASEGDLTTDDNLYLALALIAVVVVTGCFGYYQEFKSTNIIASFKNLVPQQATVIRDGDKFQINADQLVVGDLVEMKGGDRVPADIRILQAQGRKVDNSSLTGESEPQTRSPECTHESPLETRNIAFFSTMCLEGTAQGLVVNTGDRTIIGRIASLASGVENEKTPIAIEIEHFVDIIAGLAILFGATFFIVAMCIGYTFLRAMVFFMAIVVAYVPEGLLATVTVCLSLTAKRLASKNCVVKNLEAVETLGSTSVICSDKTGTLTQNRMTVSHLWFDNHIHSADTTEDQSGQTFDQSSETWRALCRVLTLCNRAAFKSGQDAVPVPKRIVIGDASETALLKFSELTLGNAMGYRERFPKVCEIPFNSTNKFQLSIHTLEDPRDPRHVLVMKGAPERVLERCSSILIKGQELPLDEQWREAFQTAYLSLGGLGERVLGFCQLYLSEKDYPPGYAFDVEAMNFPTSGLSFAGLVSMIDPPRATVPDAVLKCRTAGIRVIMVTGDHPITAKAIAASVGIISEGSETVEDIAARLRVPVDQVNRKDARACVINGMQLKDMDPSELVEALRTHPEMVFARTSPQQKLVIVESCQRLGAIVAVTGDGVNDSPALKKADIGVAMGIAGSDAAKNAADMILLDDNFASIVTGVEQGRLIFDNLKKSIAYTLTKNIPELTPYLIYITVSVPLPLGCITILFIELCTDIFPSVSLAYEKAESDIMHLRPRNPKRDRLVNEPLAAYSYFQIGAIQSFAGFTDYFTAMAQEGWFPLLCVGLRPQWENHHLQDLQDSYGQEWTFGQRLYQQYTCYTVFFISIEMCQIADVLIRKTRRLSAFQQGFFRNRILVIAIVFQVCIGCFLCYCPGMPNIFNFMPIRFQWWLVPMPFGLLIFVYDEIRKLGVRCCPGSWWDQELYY
T1 sequence (P18434 whole entry partner): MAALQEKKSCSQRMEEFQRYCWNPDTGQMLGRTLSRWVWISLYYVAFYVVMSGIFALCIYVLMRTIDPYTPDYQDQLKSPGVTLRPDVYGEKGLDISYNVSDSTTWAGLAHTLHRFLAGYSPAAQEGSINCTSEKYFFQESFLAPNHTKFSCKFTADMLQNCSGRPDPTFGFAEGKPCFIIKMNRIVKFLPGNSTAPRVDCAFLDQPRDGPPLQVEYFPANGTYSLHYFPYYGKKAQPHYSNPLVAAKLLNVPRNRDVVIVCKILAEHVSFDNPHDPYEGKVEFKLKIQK

Regarding `CCNc1c(-c2ccccc2C)nc2c3ccccc3ccn12` [Compound 158, 3-Ethylamino-2-(2-methylphenyl)imidazo[2,1-a]isoquinoline], the inhibition in vivo at 30 mg/kg in series [1] came to 92.4%; with gastric acid secretion [2], 83.6%. Besides, at H^+ /K^+ -ATPase, half-maximal inhibition (IC50) required 13 µM. Moreover, in series [3], the Approximate lethal dose is listed as > 2,000 mg/kg. Further, the ED50 in the series with gastric acid secretion [4] stood at 8.6 mg/kg.
